Here are results for four compounds from article PMC9469649 (Bioorganic & medicinal chemistry letters, 2022).

Assay [1] addresses Kv7.2 wild type (WT) channels (Homo sapiens, UniProt O43526). Put plainly: SyncroPatch 384PE automated whole cell patch-clamp, wild type Kv7.2. The format is cell-based.
Assay [2] deals with Kv7.2/7.3 heterotetramers (Homo sapiens, UniProt O43525+O43526). The experiment in a line: Whole cell patch-clamp electrophysiology, transfected CHO cells, Kv7.2/7.3. The format is cell-based.
Another assay deals with Kv7.3 over Kv7.2. The conditions noted are these: cited from earlier work.

Kv7.2 wild type (WT) channels, sequence (O43526 whole entry): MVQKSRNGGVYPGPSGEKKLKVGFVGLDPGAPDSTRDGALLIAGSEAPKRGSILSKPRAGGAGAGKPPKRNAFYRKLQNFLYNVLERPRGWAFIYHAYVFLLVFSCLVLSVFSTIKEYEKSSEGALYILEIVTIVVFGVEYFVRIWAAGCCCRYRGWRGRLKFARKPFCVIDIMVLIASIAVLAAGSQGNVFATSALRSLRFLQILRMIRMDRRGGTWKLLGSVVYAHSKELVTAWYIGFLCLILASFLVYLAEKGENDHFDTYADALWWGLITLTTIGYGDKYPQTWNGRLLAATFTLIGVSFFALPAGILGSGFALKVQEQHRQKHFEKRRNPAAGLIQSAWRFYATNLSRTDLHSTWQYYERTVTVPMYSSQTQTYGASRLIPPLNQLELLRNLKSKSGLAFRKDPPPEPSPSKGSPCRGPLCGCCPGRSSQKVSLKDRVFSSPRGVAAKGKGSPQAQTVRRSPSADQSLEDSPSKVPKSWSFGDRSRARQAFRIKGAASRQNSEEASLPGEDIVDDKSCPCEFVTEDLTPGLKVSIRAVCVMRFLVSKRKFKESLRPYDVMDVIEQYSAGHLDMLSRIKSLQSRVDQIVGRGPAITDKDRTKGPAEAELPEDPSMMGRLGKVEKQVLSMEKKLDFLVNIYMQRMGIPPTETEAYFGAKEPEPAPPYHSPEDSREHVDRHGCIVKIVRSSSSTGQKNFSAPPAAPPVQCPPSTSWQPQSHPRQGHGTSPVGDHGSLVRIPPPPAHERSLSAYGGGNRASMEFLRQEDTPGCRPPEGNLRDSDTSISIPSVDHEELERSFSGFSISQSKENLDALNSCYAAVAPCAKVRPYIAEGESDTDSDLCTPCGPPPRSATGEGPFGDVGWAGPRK

`CCOC(=O)Nc1cc(F)c2c(c1N)S(=O)(=O)CC(c1ccccc1)N2` (centres unmarked) [CH-02]: the “Kv7.2 channel activity” value in assay [1] (SyncroPatch screen, 5 μM) is “completely inactive”.
Regarding `[2H]c1cc(NC(=O)OCC)c(N)c(F)c1NCc1ccc(C(F)(F)F)cc1` [RL-25], in assay [1] (from EC50 values, Table 2), the “activity on Kv7.2 relative to RL-71 (less active)” value worked out at 20 fold and the “potency on Kv7.2 relative to retigabine (more potent)” value amounted to 4 fold.
For `Nc1c(NC(=O)OC2CC2)ccc(NCc2ccc(C(F)(F)F)cc2)c1F` [RL-56], in assay [2], the EC50 is around 0.02 µM.
For the compound `CCOC(=O)Nc1ccc(NCc2ccc(F)cc2)cc1N` [Retigabine, retigabine], the “lower EC50 for Kv7.3 over Kv7.2” value with Kv7.3 over Kv7.2 was “ca. 4 fold”.
